SMILES strings stand for the structures.

The first assay relates to HT-1080 cells. Put plainly: HT-1080 cell viability assay (ferroptosis induced by RSL3, Cell Titer-Glo). Format: cell-based. To be noted: Homo sapiens, HT-1080, 20 h, ferroptosis inducer RSL3, 20 hours, ferroptosis inhibitory activity, Table 2. On the procedure:
Example 2. Determination of EC50 Values in HT-1080 Cell Viability Assay
HT-1080 (ATCC, CCL-121) cells (6000 in 100 μl) were seeded in 96-well plates (Corning) and cultured in a 37° C. incubator with a humidified atmosphere of 5% CO2 for overnight. Cells were then treated with ferroptosis inducer RSL3 (TargetMol) and a 3-fold, 10-point serial dilution series of compounds with 1.1 μM as the highest concentration, for 20 hours. Cell viability was assessed using the Cell Titer-Glo Kit (Promega). The luminescence intensity was measured with a microplate reader (Envision, PerkinElmer), and cell viability was calculated by normalizing the data to untreated controls. The EC50 values of the compounds (e.g., Compounds 1-573 and 574-661) were calculated in GraphPad Prism (GraphPad Software, Inc., San Diego, CA, USA). The curves were fitted using a non-linear regression model with a sigmoidal dose response.
(In general: ATP-based viability assays read luminescence as a measure of living cells.)
In turn, `Cc1nc(N2CC(C)(C)OC(C)(C)C2)ccc1NC1CC2(CC(N)C2)C1` (centres unmarked) [Compound 515, N2-(2-methyl-6-(2,2,6,6-tetramethylmorpholino)pyridin-3-yl)spiro[3.3]heptane-2,6-diamine] yielded an EC50 of 0.1 to 100 nM.
The same measure, in the same setting: the value for `OC1CCCCC1Nc1ccc(N2CCC(C(F)(F)F)CC2)cc1` (centres unmarked) [Compound 415, 2-((4-(4-(trifluoromethyl)piperidin-1-yl)phenyl)amino)cyclohexan-1-ol] was 0.1 to 100 nM; that for `Cc1nc(N2CC(C)OC(C)C2)c(F)cc1NC1C2CC3CC1CC(N)(C3)C2` (centres unmarked) [Compound 519, N4-(6-(2,6-dimethylmorpholino)-5-fluoro-2-methylpyridin-3-yl)adamantane-1,4-diamine] was 0.1 to 100 nM.
The same measure, in the same setting: for `CC(C)C1CCN(c2ncc(NC3C4CC5CC3CC(CN)(C5)C4)cn2)CC1` (centres unmarked) [Compound 370, N-(5-(aminomethyl)adamantan-2-yl)-2-(4-isopropylpiperidin-1-yl)pyrimidin-5-amine] the value was 0.1 to 100 nM; for `Cc1cc(N2CCCCC2)ccc1NC1C[C@H]2CC(N)C[C@H]2C1` (stereo partly drawn) [Compound 392, (3aR,6aS)-N2-(2-methyl-4-(piperidin-1-yl)phenyl) octahydropentalene-2,5-diamine], 0.1 to 100 nM.
On the same count and under the same terms, the value for `CCCNc1ccc(N2CCC(C(F)(F)F)CC2)cc1` [Compound 14, N-propyl-4-(4-(trifluoromethyl)piperidin-1-yl)aniline] was 0.1 to 100 nM; that for `CC(C)(C)c1ccc(NC2CCC(N)C(O)C2)cc1` (centres unmarked) [Compound 327, 2-amino-5-((4-(tert-butyl)phenyl)amino)cyclohexan-1-ol] was 100 to 1000 nM.
In turn, `Cc1nc(N2CCOC(C)C2)ccc1NC1C2CC3CC1CC(N)(C3)C2` (centres unmarked) [Compound 518, N4-(2-methyl-6-(2-methylmorpholino)pyridin-3-yl)adamantane-1,4-diamine] displayed a half-maximal effective concentration (EC50) of 0.1 to 100 nM.
`CC(C)C1CCN(c2ncc(NC[C@H]3CC[C@H](NC(=O)C4CNC(=O)C4)CC3)cn2)CC1` (some centres unmarked) [Compound 367, N-((1r,4r)-4-(((2-(4-isopropylpiperidin-1-yl)pyrimidin-5-yl)amino)methyl)cyclohexyl)-5-oxopy rrolidine-3-carboxamide] returned an EC50 of 0.1 to 100 nM.
The same measure, in the same setting: for `CC(C)(C)c1ccc(NCCOCCN)cc1` [Compound 224, N-(2-(2-aminoethoxy)ethyl)-4-(tert-butyl)aniline] the value was 100 to 1000 nM; for `Cc1nc(N2CC(C)OC(C)C2)ccc1NC1CCC(CCCN)CC1` (centres unmarked) [Compound 534, N-(4-(3-aminopropyl)cyclohexyl)-6-(2,6-dimethylmorpholino)-2-methylpyridin-3-amine], 0.1 to 100 nM.
For `N[C@H]1CC[C@H](CCNc2ccc(N3CCC(C(F)(F)F)CC3)cc2F)CC1` [Compound 394, N-(2-((1r, 4r)-4-aminocyclohexyl)ethyl)-2-fluoro-4-(4-(trifluoromethyl)piperidin-1-yl)aniline], the half-maximal effective concentration (EC50) lay in the range of 0.1 to 100 nM.
In turn, `CC1(N)CCC(Nc2ccc(N3CCC(C(F)(F)F)CC3)cc2)CC1` (centres unmarked) [Compound 51, 1-methyl-N4-(4-(4-(trifluoromethyl)piperidin-1-yl)phenyl)cyclohexane-1,4-diamine] yielded an EC50 of 0.1 to 100 nM.
In the case of `NC1CCC(Nc2cnc(N3CCC(C(F)(F)F)CC3)nc2)CC1` (centres unmarked) [Compound 42, N1-(2-(4-(trifluoromethyl)piperidin-1-yl)pyrimidin-5-yl)cyclohexane-1,4-diamine], the EC50 lay in the range of 0.1 to 100 nM.
Still for that read-out and setting: for `CC(C)(C)c1ccc(NC2CC3CC(N)CC3C2)cc1` (centres unmarked) [Compound 277, N2-(4-(tert-butyl)phenyl) octahydropentalene-2,5-diamine] the value was 0.1 to 100 nM; for `CCCCCN(CC)c1ccc(NC[C@H]2CC[C@H](N)CC2)cc1` [Compound 386, N1-(((1r,4r)-4-aminocyclohexyl)methyl)-N4-ethyl-N4-pentylbenzene-1,4-diamine], 0.1 to 100 nM; for `CC(C)C1CCN(c2ncc(NC3CC4(CC(N)C4)C3)cn2)CC1` (centres unmarked) [Compound 358, N2-(2-(4-isopropylpiperidin-1-yl)pyrimidin-5-yl)spiro[3.3]heptane-2,6-diamine], 0.1 to 100 nM.
The same measure, in the same setting: the value for `CC1CN(c2ccc(NC3CC4(CC(N)C4)C3)cn2)CC(C)O1` (centres unmarked) [Compound 477, N2-(6-(2,6-dimethylmorpholino)pyridin-3-yl)spiro[3.3]heptane-2,6-diamine] was 100 to 1000 nM; that for `CCCc1ccc(NC2CCC(C)(N)CC2)cc1` (centres unmarked) [Compound 278, 1-methyl-N4-(4-propylphenyl)cyclohexane-1,4-diamine] was 0.1 to 100 nM; that for `CC1(C)CCC(c2ccc(NC3CNC(=O)C3)cc2)CC1` (centres unmarked) [Compound 141, 4-((4-(4,4-dimethylcyclohexyl)phenyl)amino)pyrrolidin-2-one] was 100 to 1000 nM.
The same measure, in the same setting: the value for `CC(Nc1ccc(C(C)(C)C)cc1)[C@H]1CC[C@H](N)CC1` (stereo partly drawn) [Compound 350, N—((S)-1-((1r,4S)-4-aminocyclohexyl)ethyl)-4-(tert-butyl)aniline] was 0.1 to 100 nM.
For the compound `Cc1nc(N2C[C@@H](C)N(CC(F)(F)F)[C@@H](C)C2)ccc1NC1C2CC3CC1CC(N)(C3)C2` (stereo partly drawn) [Compound 540, N4-(6-((3R,5S)-3,5-dimethyl-4-(2,2,2-trifluoroethyl)piperazin-1-yl)-2-methylpyridin-3-yl)adamantane-1,4-diamine], the EC50 is 0.1 to 100 nM.
Same read-out and setting: for `CC(C)C1CCN(c2ncc(NC3CC4(CC(NC(=O)C(N)=O)C4)C3)cn2)CC1` (centres unmarked) [Compound 403, N1-(6-((2-(4-isopropylpiperidin-1-yl)pyrimidin-5-yl)amino)spiro[3.3]heptan-2-yl)oxalamide] the value was 0.1 to 100 nM.
Consider `CCCCCc1ccc(NC2CCC(N)CC2)cc1` (centres unmarked) [Compound 136, N1-(4-pentylphenyl)cyclohexane-1,4-diamine], for which the EC50 lay within 0.1 to 100 nM.
Still for that read-out and setting: for `CC(C)C1CCN(c2cnc(NC3CCC(N)CC3)nc2)CC1` (centres unmarked) [Compound 400, N1-(5-(4-isopropylpiperidin-1-yl)pyrimidin-2-yl)cyclohexane-1,4-diamine] the value was 1000 to 10000 nM; for `CC1CN(c2ccc(NC3CC4(CC(N)C4)C3)c(F)c2)CC(C)O1` (centres unmarked) [Compound 461, N2-(4-(2,6-dimethylmorpholino)-2-fluorophenyl)spiro[3.3]heptane-2,6-diamine], 0.1 to 100 nM.
On the same count and under the same terms, the value for `Cc1ccc(NC2CCC(N)CC2)cc1C` (centres unmarked) [Compound 240, N1-(3,4-dimethylphenyl)cyclohexane-1,4-diamine] was 100 to 1000 nM.
The same measure, in the same setting: the value for `Cc1nc(N2CCC3(CCCCO3)CC2)ccc1NC1CC2(CC(N)C2)C1` (centres unmarked) [Compound 509, N2-(2-methyl-6-(1-oxa-9-azaspiro [5.5]undecan-9-yl)pyridin-3-yl)spiro[3.3]heptane-2,6-diamine] was 0.1 to 100 nM; that for `NC1CCC(Nc2ccc(C3CC3)cc2)CC1` (centres unmarked) [Compound 181, N1-(4-cyclopropylphenyl)cyclohexane-1,4-diamine] was 100 to 1000 nM.
On to `CC(C)(C)c1ccc(NC2CCC(CNC(=N)N)CC2)cc1` (centres unmarked) [Compound 344, 1-((4-((4-(tert-butyl)phenyl)amino)cyclohexyl)methyl)guanidine], for which the 50% effective concentration (EC50) fell in the range of 0.1 to 100 nM.
On the same count and under the same terms, for `COCCc1ccc(NC2CCC(N)CC2)cc1CCOC` (centres unmarked) [Compound 352, N1-(3,4-bis(2-methoxyethyl)phenyl)cyclohexane-1,4-diamine] the value was 1000 to 10000 nM.

The same assay, now with this note: Homo sapiens, HT-1080, 20 h, ferroptosis inducer RSL3, 20 hours, ferroptosis inhibitory activity, Table 3.
In turn, `NC(=O)N1CCC(Nc2ccc3cc(N4CCC(C(F)(F)F)CC4)ccc3c2)CC1` [Compound 633, 4-((6-(4-(trifluoromethyl)piperidin-1-yl)naphthalen-2-yl)amino)piperidine-1-carboxamide] displayed an EC50 of 0.1 to 100 nM.
On the same count and under the same terms, for `Cc1nc(N2CCN(C)C(C(F)(F)F)C2)ccc1NC1CC2(CC(N)C2)C1` (centres unmarked) [Compound 606, N2-(2-methyl-6-(4-methyl-3-(trifluoromethyl)piperazin-1-yl)pyridin-3-yl)spiro[3.3]heptane-2,6-diamine] the value was 0.1 to 100 nM.
On the same count and under the same terms, the value for `Cc1nc(N2C[C@@H](C)O[C@@H](C)C2)ccc1NCC12C3C4C1C1C2C3C41CN` (stereo partly drawn) [Compound 621, N-((4-(aminomethyl)cuban-1-yl)methyl)-6-((2S,6R)-2,6-dimethylmorpholino)-2-methylpyridin-3-amine] was 0.1 to 100 nM.
In turn, `Cc1nc(N2CC(C)N(CC(F)(F)F)C(C)C2)c(F)cc1NC1CC2(CC(N)C2)C1` (centres unmarked) [Compound 641, N^2-(6-(3,5-dimethyl-4-(2,2,2-trifluoroethyl)piperazin-1-yl)-5-fluoro-2-methylpyridin-3-yl)spiro [3.3]heptane-2,6-diamine] gave an EC50 of 0.1 to 100 nM.
The same measure, in the same setting: for `CN(C)c1ccc2cc(NC3CC4(CC(N)C4)C3)ccc2c1` (centres unmarked) [Compound 601, N2-(6-aminospiro[3.3]heptan-2-yl)-N^6,N^6-dimethylnaphthalene-2,6-diamine] the value was 0.1 to 100 nM.

Staying with this assay, now noted: Homo sapiens, ferroptosis inducer RSL3, 20 hours, ferroptosis inhibitory activity, Table 2.
The compound `CC(C)(C)c1ccc(NC2CCN(S(N)(=O)=O)CC2)cc1` [Compound 180, 4-((4-(tert-butyl)phenyl)amino)piperidine-1-sulfonamide] showed an EC50 of 100 to 1000 nM.

Staying with this assay, now noted: ferroptosis inducer RSL3, 20 hours, ferroptosis inhibitory activity, Table 2.
Take `Cc1nc(N2CC(C)OC(C)C2)c(F)cc1NC1C2CC3CC1CC(CN)(C3)C2` (single isomer, unassigned) [Compound 539A, N-((2r,5s)-5-(aminomethyl)adamantan-2-yl)-6-(2,6-dimethylmorpholino)-5-fluoro-2-methylpyridin-3-amine]: the EC50 was 0.1 to 100 nM.

For orientation: EC50 means the midpoint of the concentration-response curve.

Source of the values: patent US20240360114A1 (SIRONAX LTD., priority 2021, published 2024).
